{"source": "patent US12497614B2", "about": "“Compositions and methods for editing beta-globin for treatment of hemaglobinopathies” (Vertex Pharmaceuticals Incorporated, priority 2020, dated 2025)", "key": {"CD34+ HSPCs": {"tested_on": "CD34+ HSPCs", "test": "Cell growth and viability (trypan blue) of edited CD34+ HSPCs during differentiation (Example 5)", "details": "day 0 to day 18 post-editing; inhibitor 1 or 3 μM, i53 1 μg mRNA; data not shown", "method": "Briefly, frozen CD34+ HSPCs isolated from Plerixafor mobilized peripheral blood, obtained from healthy human donors were thawed. The cells were seeded in CD34 cell media at a cell density of 2×10^5 cells/mL. Cells were cultured at 37° C. under normoxic conditions (i.e., oxygen 20%). Gene-editing was performed following two days of in vitro culture. For editing, 5×10^5 CD34+ HSPCs were electroporated with RNP containing 200 μg/ml Cas9 and 200 μg/ml T107 sgRNA. […] The cells were transduced with AAV.310, 1 hour prior to electroporation, at a dose of 10,000 MOI. The cells were plated in CD34 cell medium containing Compound 296 or Compound 984 immediately following the electroporation, at a concentration of 1 μM or 3 μM for 48 hours. […] Post electroporation cells were resuspended in CD34 cell medium at a density of 2-5×10^5 cells/ml and incubated at 37° C. for 48 hours.\nFollowing editing, cells were differentiated to erythrocytes. Briefly, cells were plated in fresh CD34 media at a density of 2×10^5 cells/mL, and re-plated at similar density in fresh CD34 media on days 3 and 5 post-editing. On day 7 and 10 post-editing, the cells were incubated in Phase II media at a density of 2.5×10^5 and 1×10^6 cells/mL respectively. On day 12 post-editing, the cells were incubated in Phase III media at a density of 1×10^6 cells/mL. On day 14 cells were plated at a density of 2×10^6 cells/ml in Phase III media and maintained till day 18 at 37° C. Cell growth was measured at various time points between day 0 and day 18 post-editing, and the percentage of viable cells was measured by staining with tryphan blue."}, "[1]": {"tested_on": "HBB gene locus and mRNA transcribed from HBB in CD34+ HSPCs", "test": "Editing efficiency in genomic DNA and in HBB mRNA (Example 5)", "assay_type": "cell-based, human", "details": "genomic DNA, 48 hours post electroporation; 1 μM or 3 μM", "method": "At 48 hours post electroporation genomic DNA was isolated from the edited cells and HDR to introduce the sickle mutation and INDEL frequencies were evaluated using next gene sequencing and computational analysis. On day 10 of differentiation, incorporation of the SCD mutation and frequency of INDELs present in mRNA transcribed from the HBB gene locus of edited cells was determined using RNA amplicon sequencing."}, "[2]": {"test": "Engraftment and persistence of gene-editing after in vivo administration of CD34+ HSPCs edited with T107 RNP, AAV.310 and Compound 984 (Example 14)", "design": "species or system mouse", "details": "T107 RNP+AAV.310 in the presence of Compound 984 (3 μM)", "method": "(§1) The cells were electroporated and immediately plated in medium only or medium containing Compound 984 at 3 μM. […] Genomic DNA was harvested from edited cells and used to evaluate HDR efficiency by […] as described in Example 1.\n(§2) Following two days of in vitro culture, HSPCs were administered by intravenous injection to NBSGW mice at a dose of 0.5×10^6 cells per mouse. Recipient mice were treated with sublethal irradiation (100 cGy) at 1 day prior to administration of HSPCs. […] In total three independent replicates of the study were performed.\n(§3) Bone marrow and peripheral blood was extracted at 16 weeks following HSPC administration and evaluated for presence of human hematopoietic cells using flow cytometry as described in Example 2. The percent chimerism (percentage of human CD45+ cells relative total cells expressing human CD45 or mouse CD45) in mouse bone marrow and peripheral blood is respectively shown in FIGS. 14A-14B.\n(§4) Additionally, the lineage of human CD45+ cells was determined using markers for human B cells, T cells, myeloid cells, and HSPCs as described in Example 2.\n(§5) The long term persistence of edits in the HBB gene present in HSPCs administered to each mouse cohorts was evaluated in genomic DNA extracted from bone marrow collected at 16 weeks. The frequency of donor template-encoded gene-edits in the HBB gene incorporated by HDR was quantified by NGS and is shown in FIG. 14D. […]"}, "NBSGW mice": {"tested_on": "NBSGW mice", "test": "Engraftment and persistence of gene-editing after in vivo administration of CD34+ HSPCs edited with T107 RNP, AAV.310 and Compound 984 (Example 14)", "design": "species or system mouse", "details": "16 weeks; T107 RNP+AAV.310 in the presence of Compound 984", "method": "as §1, §2, §3, §4, §5"}, "HBB locus in CD34+ HSPCs": {"tested_on": "HBB locus in CD34+ HSPCs", "test": "In vitro editing of HBB in CD34+ HSPCs with T223 RNP and AAV.321 (Example 9)", "assay_type": "cell-based, human", "details": "T223 RNP+AAV.321-edited cells treated with i53", "method": "Gene-editing of HBB was evaluated using CD34+ HSPCs that were derived and maintained in culture as described in Example 1. HSPCs were subjected to gene-editing following two days of culture. To perform gene-editing, the cells were electroporated with RNP. Specifically, 5×10^6 cells were electroporated using the Maxcyte Buffer/HSC-3 program with RNP containing 20 μg SpCas9 and 20 μg sgRNA (T223 or R02). Cells were transfected with corresponding AAV donor template at a dose of 10,000 MOI (AAV.321 or AAV.323 respectively). The effect of 53BP1 inhibition and DNA-PK inhibitions on editing with RNP+AAV was also evaluated by treating cells with […] or 1 μg i53 mRNA+1 μM Nu7441.\nThe cells were cultured for two days following electroporation and prior to evaluation of editing efficiency. To evaluate editing efficiency, genomic DNA was harvested from edited cells, and frequency of HDR and frequency of INDELs at the predicted gRNA cut site was evaluated as described in Example 1."}}, "data": [{"compound": "[2H]c1nc(C)nc([2H])c1-c1cc(NC[C@@H](C)c2cccc3c(C(=O)NC)ccnc23)ncn1", "note": "[Compound 984]", "values": [{"measurement": "cell growth over time or percent viability vs T107 RNP+AAV.310 edited cells", "setting": "CD34+ HSPCs", "result": "No difference"}, {"measurement": "frequency of INDELs at the T107 cut site compared to cells edited with T107 RNP+AAV.310 only", "setting": "[1]", "result": "decreased"}, {"measurement": "level of HDR repair compared to cells edited with T107 RNP+AAV.310 only", "setting": "[1]", "result": "increased"}, {"measurement": "frequency of gene-edits (HDR) in CD34+ HSPCs prior to transplantation", "setting": "[2]", "result": "approximately 45%"}, {"measurement": "frequency of gene-edits in mouse bone marrow vs CD34+ HSPCs prior to transplantation", "setting": "NBSGW mice", "result": "comparable"}]}, {"compound": "i53: polypeptide inhibitor of 53BP1 (SEQ ID NO: 11), introduced as an mRNA-encoded protein (ORF SEQ ID NO: 10)", "values": [{"measurement": "cell growth over time or percent viability vs T107 RNP+AAV.310 edited cells", "setting": "CD34+ HSPCs", "result": "No difference"}, {"measurement": "frequency of INDELs at the T223 cut site", "setting": "HBB locus in CD34+ HSPCs", "result": "reduced"}, {"measurement": "frequency of genomic DNA incorporating the E6V gene-edit", "setting": "HBB locus in CD34+ HSPCs", "result": "improved"}]}]}
